This note sets out measurements from patent publication US20080181866A1, “Amido Anti-viral Compounds” (Genelabs Technologies, Inc., priority 2006, published 2008).

In the test the test system is HCV replication. In words: HCV replicon assay (luciferase) in ET (Huh-lucubineo-ET) cell line. As to conditions: Hepatitis C virus, tested at 5 μM; ET replicon cells; luciferase activity measured 48-72 hours later; relative to no compound control. Type of test: cell-based. In outline:
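Huh-lucubineo-ET cells stably carry a subgenomic replicon with a firefly luciferase–ubiquitin–neo fusion and adaptive NS3-5B mutations; they were seeded 24 h before compound addition (0.1 nM–50 μM, 0.5% DMSO). Luciferase was read 48–72 h later as % inhibition versus no-compound control, with parallel WST-1 cytotoxicity. EC50 and TC50 came from 10-point 2-fold dilutions fitted to a Hill equation.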
(In general: Replicon systems follow genome replication, usually without infectious particles.)
Broadly, the inhibition is the percentage by which the read-out fell short of the control. Low readings indicate little suppression, high ones strong suppression. Consider `O=C(NC1CC1)c1ccc(-c2csc(NC(=O)[C@@H]3CSC(c4ccncc4)N3C(=O)OCc3ccccc3)n2)cc1` (mixture of isomers) [Compound 7031, (R)-4-[4-(4-Cyclopropylcarbamoyl-phenyl)-thiazol-2-ylcarbamoyl]-2-pyridin-4-yl-thiazolidine-3-carboxylic acid benzyl ester], for which at 5 µM the inhibition was 99.8%.
Then `CNC(=O)CCC1SC[C@@H](C(=O)Nc2nc(-c3ccc(C(=O)NC4CC4)cc3)cs2)N1C(=O)OCc1ccccc1` (stereo in doubt) [Compound 7091, 4-[4-(4-Cyclopropylcarbamoyl-phenyl)-thiazol-2-ylcarbamoyl]-2-(2-methylcarbamoyl-ethyl)-thiazolidine-3-carboxylic acid benzyl ester], with 100%.
For `CN(C)c1ncc(C2SC[C@@H](C(=O)Nc3nc(-c4ccc(C(=O)NC5CC5)cc4)cs3)N2C(=O)OCc2ccccc2)cn1` (stereo in doubt) [Compound 7131, 4-[4-(4-Cyclopropylcarbamoyl-phenyl)-thiazol-2-ylcarbamoyl]-2-(2-dimethylamino-pyrimidin-5-yl)-thiazolidine-3-carboxylic acid benzyl ester] the value was 100%; for `CC(C)(C)OC(=O)N1C[C@@H](c2ccccc2)C[C@H]1C(=O)Nc1nc(-c2ccc(C(=O)NC3CC3)cc2)cs1` [Compound 7027, (2S,4R)-2-[4-(4-Cyclopropylcarbamoyl-phenyl)-thiazol-2-ylcarbamoyl]-4-phenyl-pyrrolidine-1-carboxylic acid tert-butyl ester], 6.9%.
Then `O=C(Nc1ccccc1)[C@@H]1CSC(c2cccnc2)N1C(=O)OCc1ccccc1` (some centres unmarked) [Compound 7018, 4-Phenylcarbamoyl-2-pyridin-3-yl-thiazolidine-3-carboxylic acid benzyl ester], with 47.6%; and `O=C(NC1CC1)c1ccc(-c2csc(NC(=O)[C@@H]3CC[C@H](c4ccc(CN5CCOCC5)cc4)N3C(=O)OCc3ccccc3)n2)cc1` [Compound 7045, (2S,5R)-2-[4-(4-Cyclopropylcarbamoyl-phenyl)-thiazol-2-ylcarbamoyl]-5-(4-morpholin-4-ylmethyl-phenyl)-pyrrolidine-1-carboxylic acid benzyl ester], with 100%; and `O=C(NCCc1ccccc1)c1ccc(NC(=O)[C@@H]2CSC(c3ccncc3)N2C(=O)OCc2ccccc2)cc1` (stereo in doubt) [Compound 7113, 4-(4-Phenethylcarbamoyl-phenylcarbamoyl)-2-pyridin-4-yl-thiazolidine-3-carboxylic acid benzyl ester], with 86.5%.
On to `O=C(Cc1ccc(NC(=O)[C@@H]2CSC(c3ccncc3)N2C(=O)OCc2ccccc2)cc1)NCc1ccccc1` (stereo in doubt) [Compound 7105, 4-[4-(Benzylcarbamoyl-methyl)-phenylcarbamoyl]-2-pyridin-4-yl-thiazolidine-3-carboxylic acid benzyl ester], for which the inhibition at 5 µM came to 74.2%.
For `CN(C)C(=O)CCC1SC[C@@H](C(=O)Nc2nc(-c3ccc(C(=O)NC4CC4)cc3)cs2)N1C(=O)OCc1ccccc1` (some centres unmarked) [Compound 7118, 4-[4-(4-Cyclopropylcarbamoyl-phenyl)-thiazol-2-ylcarbamoyl]-2-(2-dimethylcarbamoyl-ethyl)-thiazolidine-3-carboxylic acid benzyl ester] the value was 99.9%; for `O=C(NC1CC1)c1ccc(-c2csc(NC(=O)[C@@H]3COC(c4ccccc4)N3C(=O)OCc3ccccc3)n2)cc1` (stereo partly drawn) [Compound 7046, (S)-4-[4-(4-Cyclopropylcarbamoyl-phenyl)-thiazol-2-ylcarbamoyl]-2-phenyl-oxazolidine-3-carboxylic acid benzyl ester], 99.1%; for `O=C(NC1CC1)c1ccc(-c2csc(NC(=O)[C@@H]3CSC(c4cncnc4)N3C(=O)OCc3ccccc3)n2)cc1` (mixture of isomers) [Compound 7022, (R)-4-[4-(4-Cyclopropylcarbamoyl-phenyl)-thiazol-2-ylcarbamoyl]-2-pyrimidin-5-yl-thiazolidine-3-carboxylic acid benzyl ester], 100%.
For `CC(=O)N1CCCC(C2SC[C@@H](C(=O)Nc3nc(-c4ccc(C(=O)NC5CC5)cc4)cs3)N2C(=O)OCc2ccccc2)C1` (mixture of isomers) [Compound 7133, 2-(1-Acetyl-piperidin-3-yl)-4-[4-(4-cyclopropylcarbamoyl-phenyl)-thiazol-2-ylcarbamoyl]-thiazolidine-3-carboxylic acid benzyl ester] the value was 100%.
Then `O=C(NC1CC1)c1ccc(-c2csc(NC(=O)[C@@H]3COC(c4ccncc4)N3C(=O)OCc3ccccc3)n2)cc1` (stereo partly drawn) [Compound 7011, (S)-4-[4-(4-Cyclopropylcarbamoyl-phenyl)-thiazol-2-ylcarbamoyl]-2-pyridin-4-yl-oxazolidine-3-carboxylic acid benzyl ester], with 98.8%.
Regarding `O=C(NC1CC1)c1ccc(-c2csc(NC(=O)[C@@H]3Cc4ccccc4N3C(=O)OCc3ccccc3)n2)cc1` [Compound 7039, (S)-2-[4-(4-Cyclopropylcarbamoyl-phenyl)-thiazol-2-ylcarbamoyl]-2,3-dihydro-indole-1-carboxylic acid benzyl ester], the inhibition at 5 µM came out at 100%.
The compound `CNC(=O)CCCCC1SC[C@@H](C(=O)Nc2nc(-c3ccc(C(=O)NC4CC4)cc3)cs2)N1C(=O)OCc1ccccc1` (some centres unmarked) [Compound 7099, 4-[4-(4-Cyclopropylcarbamoyl-phenyl)-thiazol-2-ylcarbamoyl]-2-(4-methylcarbamoyl-butyl)-thiazolidine-3-carboxylic acid benzyl ester] had an inhibition at 5 µM of 100%.
Then `O=C(NC1CC1)c1ccc(-c2csc(NC(=O)[C@@H]3CS[C@H](c4cccnc4)N3C(=O)OCc3ccccc3)n2)cc1` [Compound 7028, (2R,4R)-4-[4-(4-Cyclopropylcarbamoyl-phenyl)-thiazol-2-ylcarbamoyl]-2-pyridin-3-yl-thiazolidine-3-carboxylic acid benzyl ester], with 100%; and `O=C(NC1CC1)c1ccc(-c2csc(NC(=O)[C@@H]3CSC(CC4CCOCC4)N3C(=O)OCc3ccccc3)n2)cc1` (mixture of isomers) [Compound 7004, (R)-4-[4-(4-Cyclopropylcarbamoyl-phenyl)-thiazol-2-ylcarbamoyl]-2-(tetrahydro-pyran-4-ylmethyl)-thiazolidine-3-carboxylic acid benzyl ester], with 99.9%.
Then `O=C(NC1CC1)c1ccc(-c2csc(NC(=O)[C@@H]3C[C@@H](Cc4ccccc4)CN3C(=O)OCc3ccccc3)n2)cc1` [Compound 7006, (2S,4R)-4-Benzyl-2-[4-(4-cyclopropylcarbamoyl-phenyl)-thiazol-2-ylcarbamoyl]-pyrrolidine-1-carboxylic acid benzyl ester], with 98.4%.
Compound `CN(C)C(=O)CCCCC1SC[C@@H](C(=O)Nc2nc(-c3ccc(C(=O)NC4CC4)cc3)cs2)N1C(=O)OCc1ccccc1` (mixture of isomers) [Compound 7125, 4-[4-(4-Cyclopropylcarbamoyl-phenyl)-thiazol-2-ylcarbamoyl]-2-(4-dimethylcarbamoyl-butyl)-thiazolidine-3-carboxylic acid benzyl ester] had an inhibition at 5 µM of 100%.
Then `O=C(Cc1ccc(NC(=O)[C@@H]2CSC(c3ccncc3)N2C(=O)OCc2ccccc2)cc1)Nc1ccccc1` (some centres unmarked) [Compound 7126, 4-(4-Phenylcarbamoylmethyl-phenylcarbamoyl)-2-pyridin-4-yl-thiazolidine-3-carboxylic acid benzyl ester], with 93.8%; and `O=C(NCc1ccccc1)c1cccc(NC(=O)[C@@H]2CSC(c3ccncc3)N2C(=O)OCc2ccccc2)c1` (some centres unmarked) [Compound 7100, 4-(3-Benzylcarbamoyl-phenylcarbamoyl)-2-pyridin-4-yl-thiazolidine-3-carboxylic acid benzyl ester], with 80.1%.
`N#Cc1ccc(C2SC[C@@H](C(=O)Nc3nc(-c4ccc(C(=O)NC5CC5)cc4)cs3)N2C(=O)OCc2ccccc2)cc1` (mixture of isomers) [Compound 7017, (R)-2-(4-Cyano-phenyl)-4-[4-(4-cyclopropylcarbamoyl-phenyl)-thiazol-2-ylcarbamoyl]-thiazolidine-3-carboxylic acid benzyl ester]: the inhibition at 5 µM was found to be 100%.
For `O=C(NC1CC1)c1ccc(-c2csc(NC(=O)[C@@H]3CSC(c4ncco4)N3C(=O)OCc3ccccc3)n2)cc1` (mixture of isomers) [Compound 7056, (R)-4-[4-(4-Cyclopropylcarbamoyl-phenyl)-thiazol-2-ylcarbamoyl]-2-oxazol-2-yl-thiazolidine-3-carboxylic acid benzyl ester] the value was 99.9%; for `O=C(Cc1ccc(NC(=O)[C@@H]2CSC(c3ccncc3)N2C(=O)OCc2ccccc2)cc1)NCCc1ccccc1` (some centres unmarked) [Compound 7119, 4-[4-(Phenethylcarbamoyl-methyl)-phenylcarbamoyl]-2-pyridin-4-yl-thiazolidine-3-carboxylic acid benzyl ester], 1.2%; for `O=C(NC1CC1)c1ccc(-c2csc(NC(=O)[C@@H]3CSC(C4CCCNC4)N3C(=O)OCc3ccccc3)n2)cc1` (mixture of isomers) [Compound 7021, (R)-4-[4-(4-Cyclopropylcarbamoyl-phenyl)-thiazol-2-ylcarbamoyl]-2-piperidin-3-yl-thiazolidine-3-carboxylic acid benzyl ester], 100%.
Then `O=C(NC1CC1)c1ccc(-c2csc(NC(=O)[C@@H]3CSC(c4ccncc4F)N3C(=O)OCc3ccccc3)n2)cc1` (mixture of isomers) [Compound 7008, (R)-4-[4-(4-Cyclopropylcarbamoyl-phenyl)-thiazol-2-ylcarbamoyl]-2-(3-fluoro-pyridin-4-yl)-thiazolidine-3-carboxylic acid benzyl ester], with 100%.
